Measurements published in patent publication US6737383B1, “Herbicidal oxadiazolidines” (priority 1999, dated 2004).

Assays:
soybean = test: Test B pre/postemergence soybean; assay type: in vivo, Glycine max
In short: (§1)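 Response is a visual 0-to-10 score relative to untreated plants, where 0 means no effect and 10 means complete control, taken twelve to sixteen days after application. Treatments went onto soil at planting and onto foliage of 1- to 4-leaf plants, using a surfactant-containing non-phytotoxic solvent.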

sugar beet = test: Test B pre/postemergence sugar beet; assay type: in vivo, Beta vulgaris
In short: as §1

pigweed = test: Test B pre/postemergence pigweed; assay type: in vivo, Amaranthus retroflexus
In short: as §1

rape = test: Test B pre/postemergence rape; assay type: in vivo, Brassica napus
In short: as §1

[1] = Postemergence, Rate 250 g/ha, scale 0 to 10
[2] = Postemergence, Rate 500 g/ha, scale of 0 to 10 where 0 is no effect and 10 is complete control
[3] = Preemergence, Rate 62 g/ha, scale of 0 to 10 where 0 is no effect and 10 is complete control
[4] = Preemergence, Rate 125 g/ha, scale of 0 to 10 where 0 is no effect and 10 is complete control
[5] = Preemergence, Rate 250 g/ha, scale 0 to 10, 0 is no effect, 10 is complete control
[6] = Preemergence, Rate 500 g/ha, scale 0 to 10, 0 is no effect, 10 is complete control
[7] = Rate 62 g/ha, Postemergence, scale 0 to 10, 0 no effect, 10 complete control
[8] = Rate 125 g/ha, Postemergence, scale 0 to 10, 0 is no effect, 10 is complete control
[9] = Postemergence, Rate 125 g/ha, scale 0 to 10, 0 is no effect, 10 is complete control
[10] = Preemergence, Rate 125 g/ha, scale 0 to 10, 0 is no effect, 10 is complete control

For `Cc1nc(C)c(C(C)n2c(=O)on(C(=O)N(c3ccc(F)cc3F)C(C)C)c2=O)s1` (stereo not drawn) [Compound 443], which “Soybean plant response rating” value (soybean; [1]) is on record?
Its value is 1.

And the “Soybean plant response rating” value (soybean; [2])?
The value was 2.

And the “Plant response rating, Soybean” value (soybean; [3])?
The value was 0.

What about the “Plant response rating, Soybean” value (soybean; [4]) of the same molecule?
Its value is 0.

What about the “Soybean plant response rating” value (soybean; [5]) of the same molecule?
The value was 0.

What about the “Soybean plant response rating” value (soybean; [6]) of the same molecule?
Its value is 0.

What about the “Soybean plant response rating” value (soybean; [7]) of the same molecule?
The value was 1.

And the “Soybean plant response rating” value (soybean; [8])?
The value was 1.

And the “Sugarbeets plant response rating” value (sugar beet; [1])?
Its value is 0.

What about the “Sugarbeets plant response rating” value (sugar beet; [2]) of the same molecule?
Its value is 0.

And the “Plant response rating, Sugarbeets” value (sugar beet; [3])?
Its value is 0.

What about the “Plant response rating, Sugarbeets” value (sugar beet; [4]) of the same molecule?
Its value is 0.

And the “Sugarbeets plant response rating” value (sugar beet; [5])?
Its value is 0.

What about the “Sugarbeets plant response rating” value (sugar beet; [6]) of the same molecule?
Its value is 0.

What about the “Sugarbeets plant response rating” value (sugar beet; [7]) of the same molecule?
Its value is 0.

And the “Sugarbeets plant response rating” value (sugar beet; [8])?
The value was 0.

And the “Redroot pigweed plant response rating” value (pigweed; [1])?
The value was 0.

And the “Redroot pigweed plant response rating” value (pigweed; [2])?
Its value is 0.

And the “Plant response rating, Redroot pigweed” value (pigweed; [3])?
Its value is 0.

What about the “Plant response rating, Redroot pigweed” value (pigweed; [4]) of the same molecule?
Its value is 0.

What about the “Redroot pigweed plant response rating” value (pigweed; [5]) of the same molecule?
Its value is 0.

And the “Redroot pigweed plant response rating” value (pigweed; [6])?
Its value is 6.

And the “Redroot pigweed plant response rating” value (pigweed; [7])?
Its value is 0.

And the “Redroot pigweed plant response rating” value (pigweed; [8])?
Its value is 0.

And the “Rape plant response rating” value (rape; [1])?
The value was 0.

And the “Rape plant response rating” value (rape; [2])?
The value was 0.

And the “Plant response rating, Rape” value (rape; [3])?
Its value is 0.

What about the “Plant response rating, Rape” value (rape; [4]) of the same molecule?
The value was 0.

What about the “Rape plant response rating” value (rape; [5]) of the same molecule?
The value was 0.

And the “Rape plant response rating” value (rape; [6])?
The value was 0.

And the “Rape plant response rating” value (rape; [7])?
The value was 0.

What about the “Rape plant response rating” value (rape; [8]) of the same molecule?
The value was 0.

What does the source list for `CC(C)N(C(=O)n1oc(=O)n(C(C)C#N)c1=O)c1ccc(Cl)cc1` (stereo not drawn) [Compound 451]?
Soybean plant response rating (soybean; [1]): 1; Plant response rating, Soybean (soybean; [3]): 0; Plant response rating, Soybean (soybean; [4]): 0; Soybean plant response rating (soybean; [5]): 0; Soybean plant response rating (soybean; [6]): 0; Soybean plant response rating (soybean; [7]): 0; Soybean plant response rating (soybean; [8]): 1; Sugarbeets plant response rating (sugar beet; [1]): 0; Plant response rating, Sugarbeets (sugar beet; [3]): 0; Plant response rating, Sugarbeets (sugar beet; [4]): 0; Sugarbeets plant response rating (sugar beet; [5]): 0; Sugarbeets plant response rating (sugar beet; [6]): 0; Sugarbeets plant response rating (sugar beet; [7]): 0; Sugarbeets plant response rating (sugar beet; [8]): 0; Redroot pigweed plant response rating (pigweed; [1]): 0; Plant response rating, Redroot pigweed (pigweed; [3]): 0; Plant response rating, Redroot pigweed (pigweed; [4]): 0; Redroot pigweed plant response rating (pigweed; [5]): 0; Redroot pigweed plant response rating (pigweed; [6]): 0; Redroot pigweed plant response rating (pigweed; [7]): 0; Redroot pigweed plant response rating (pigweed; [8]): 0; Rape plant response rating (rape; [1]): 0; Plant response rating, Rape (rape; [3]): 0; Plant response rating, Rape (rape; [4]): 0; Rape plant response rating (rape; [5]): 0; Rape plant response rating (rape; [6]): 0; Rape plant response rating (rape; [7]): 0; Rape plant response rating (rape; [8]): 0

`CC(C)N(C(=O)n1oc(=O)n(C(C)CCl)c1=O)c1ccc(Cl)cc1` (stereo not drawn) [Compound 456] was tested. Which “Soybean plant response rating” value (soybean; [1]) did it give?
The value was 2.

And the “Plant response rating, Soybean” value (soybean; [3])?
The value was 0.

What about the “Plant response rating, Soybean” value (soybean; [4]) of the same molecule?
Its value is 0.

And the “Soybean plant response rating” value (soybean; [5])?
Its value is 0.

And the “Soybean plant response rating” value (soybean; [6])?
Its value is 0.

And the “Soybean plant response rating” value (soybean; [7])?
The value was 1.

And the “Soybean plant response rating” value (soybean; [8])?
The value was 3.

And the “Sugarbeets plant response rating” value (sugar beet; [1])?
Its value is 0.

And the “Plant response rating, Sugarbeets” value (sugar beet; [3])?
The value was 0.

And the “Plant response rating, Sugarbeets” value (sugar beet; [4])?
The value was 2.

What about the “Sugarbeets plant response rating” value (sugar beet; [5]) of the same molecule?
Its value is 2.

What about the “Sugarbeets plant response rating” value (sugar beet; [6]) of the same molecule?
Its value is 3.

What about the “Sugarbeets plant response rating” value (sugar beet; [7]) of the same molecule?
Its value is 0.

What about the “Sugarbeets plant response rating” value (sugar beet; [8]) of the same molecule?
Its value is 0.

What about the “Redroot pigweed plant response rating” value (pigweed; [1]) of the same molecule?
The value was 3.

What about the “Plant response rating, Redroot pigweed” value (pigweed; [3]) of the same molecule?
The value was 0.

What about the “Plant response rating, Redroot pigweed” value (pigweed; [4]) of the same molecule?
The value was 2.

What about the “Redroot pigweed plant response rating” value (pigweed; [5]) of the same molecule?
The value was 3.

What about the “Redroot pigweed plant response rating” value (pigweed; [6]) of the same molecule?
Its value is 5.

And the “Redroot pigweed plant response rating” value (pigweed; [7])?
Its value is 0.

What about the “Redroot pigweed plant response rating” value (pigweed; [8]) of the same molecule?
Its value is 0.

And the “Rape plant response rating” value (rape; [1])?
The value was 0.

And the “Plant response rating, Rape” value (rape; [3])?
Its value is 0.

What about the “Plant response rating, Rape” value (rape; [4]) of the same molecule?
Its value is 0.

What about the “Rape plant response rating” value (rape; [5]) of the same molecule?
Its value is 0.

What about the “Rape plant response rating” value (rape; [6]) of the same molecule?
The value was 0.

What about the “Rape plant response rating” value (rape; [7]) of the same molecule?
The value was 0.

And the “Rape plant response rating” value (rape; [8])?
The value was 0.

Which results are given for `CC(C)N(C(=O)n1oc(=O)n(CC#N)c1=O)c1ccc(Cl)cc1` [Compound 476]?
Soybean plant response rating (soybean; [1]): 2; Plant response rating, Soybean (soybean; [3]): 0; Plant response rating, Soybean (soybean; [4]): 0; Soybean plant response rating (soybean; [5]): 0; Soybean plant response rating (soybean; [6]): 0; Soybean plant response rating (soybean; [7]): 0; Soybean plant response rating (soybean; [8]): 1; Sugarbeets plant response rating (sugar beet; [1]): 0; Plant response rating, Sugarbeets (sugar beet; [3]): 0; Plant response rating, Sugarbeets (sugar beet; [4]): 0; Sugarbeets plant response rating (sugar beet; [5]): 0; Sugarbeets plant response rating (sugar beet; [6]): 0; Sugarbeets plant response rating (sugar beet; [7]): 0; Sugarbeets plant response rating (sugar beet; [8]): 0; Redroot pigweed plant response rating (pigweed; [1]): 0; Plant response rating, Redroot pigweed (pigweed; [3]): 0; Plant response rating, Redroot pigweed (pigweed; [4]): 0; Redroot pigweed plant response rating (pigweed; [5]): 2; Redroot pigweed plant response rating (pigweed; [6]): 4; Redroot pigweed plant response rating (pigweed; [7]): 0; Redroot pigweed plant response rating (pigweed; [8]): 0; Rape plant response rating (rape; [1]): 0; Plant response rating, Rape (rape; [3]): 0; Plant response rating, Rape (rape; [4]): 0; Rape plant response rating (rape; [5]): 0; Rape plant response rating (rape; [6]): 0; Rape plant response rating (rape; [7]): 0; Rape plant response rating (rape; [8]): 0

How did the “Soybean plant response rating” value (soybean; [9]) turn out when `CC(C)N(C(=O)n1oc(=O)n(Cc2cnc(Cl)s2)c1=O)c1ccc(F)cc1` [Compound 482] was run?
Its value is 1.

What about the “Soybean plant response rating” value (soybean; [1]) of the same molecule?
The value was 1.

What about the “Plant response rating, Soybean” value (soybean; [3]) of the same molecule?
The value was 0.

And the “Soybean plant response rating” value (soybean; [10])?
Its value is 0.

And the “Soybean plant response rating” value (soybean; [5])?
The value was 0.

What about the “Soybean plant response rating” value (soybean; [6]) of the same molecule?
Its value is 0.

And the “Soybean plant response rating” value (soybean; [7])?
Its value is 1.

What about the “Sugarbeets plant response rating” value (sugar beet; [9]) of the same molecule?
Its value is 0.

And the “Sugarbeets plant response rating” value (sugar beet; [1])?
Its value is 0.

And the “Plant response rating, Sugarbeets” value (sugar beet; [3])?
Its value is 0.

What about the “Sugarbeets plant response rating” value (sugar beet; [10]) of the same molecule?
Its value is 0.

And the “Sugarbeets plant response rating” value (sugar beet; [5])?
Its value is 0.

What about the “Sugarbeets plant response rating” value (sugar beet; [6]) of the same molecule?
Its value is 0.

What about the “Sugarbeets plant response rating” value (sugar beet; [7]) of the same molecule?
The value was 0.

What about the “Redroot pigweed plant response rating” value (pigweed; [9]) of the same molecule?
The value was 0.

And the “Redroot pigweed plant response rating” value (pigweed; [1])?
Its value is 2.

What about the “Plant response rating, Redroot pigweed” value (pigweed; [3]) of the same molecule?
Its value is 0.

What about the “Redroot pigweed plant response rating” value (pigweed; [10]) of the same molecule?
Its value is 0.

And the “Redroot pigweed plant response rating” value (pigweed; [5])?
The value was 0.

What about the “Redroot pigweed plant response rating” value (pigweed; [6]) of the same molecule?
Its value is 0.

What about the “Redroot pigweed plant response rating” value (pigweed; [7]) of the same molecule?
The value was 0.

And the “Rape plant response rating” value (rape; [9])?
The value was 0.

What about the “Rape plant response rating” value (rape; [1]) of the same molecule?
Its value is 0.

What about the “Plant response rating, Rape” value (rape; [3]) of the same molecule?
The value was 0.

What about the “Rape plant response rating” value (rape; [10]) of the same molecule?
The value was 0.

What about the “Rape plant response rating” value (rape; [5]) of the same molecule?
The value was 0.

And the “Rape plant response rating” value (rape; [6])?
The value was 0.

What about the “Rape plant response rating” value (rape; [7]) of the same molecule?
Its value is 0.
